This note sets out measurements from ChEMBL document CHEMBL2046275, “Cellular quantitative structure-activity relationship (Cell-QSAR): conceptual dissection of receptor binding and intracellular disposition in antifilarial activities of Selwood antimycins” (J Med Chem, 2012).

The structures appear in SMILES notation.

In the experiment the test system is Acanthocheilonema viteae. As to the kind of experiment: Antifilarial activity against Dipetalonema viteae after 120 hrs. The class given is functional, organism-based. The settings on record: read-out: log(1/EC50) (converted).

In the case of `O=C(Nc1ccc(Nc2ccc(SC(F)(F)F)cc2)c(Cl)c1)c1cc([N+](=O)[O-])ccc1O`, the EC50 is 0.028 µM.
In the case of `CCCCCCNC(=O)c1cccc(NC=O)c1O` it was greater than 10 µM.
In the case of `O=C(Nc1ccc(C(O)c2ccccc2)cc1)c1cc([N+](=O)[O-])ccc1O` (stereo not drawn) it was greater than 10 µM.
